Measurements from publication PMC2443190, “Novel Intermolecular Iterative Mechanism for Biosynthesis of Mycoketide Catalyzed by a Bimodular Polyketide Synthase” (PLoS Biology, 2008).

Assays:
[1] = biological target: T1, PKS12 (Mycobacterium tuberculosis, UniProt I6XD69)
[2] = biological target: T1, PKS12; remark: listed apart in the source

T1 sequence (I6XD69 whole entry): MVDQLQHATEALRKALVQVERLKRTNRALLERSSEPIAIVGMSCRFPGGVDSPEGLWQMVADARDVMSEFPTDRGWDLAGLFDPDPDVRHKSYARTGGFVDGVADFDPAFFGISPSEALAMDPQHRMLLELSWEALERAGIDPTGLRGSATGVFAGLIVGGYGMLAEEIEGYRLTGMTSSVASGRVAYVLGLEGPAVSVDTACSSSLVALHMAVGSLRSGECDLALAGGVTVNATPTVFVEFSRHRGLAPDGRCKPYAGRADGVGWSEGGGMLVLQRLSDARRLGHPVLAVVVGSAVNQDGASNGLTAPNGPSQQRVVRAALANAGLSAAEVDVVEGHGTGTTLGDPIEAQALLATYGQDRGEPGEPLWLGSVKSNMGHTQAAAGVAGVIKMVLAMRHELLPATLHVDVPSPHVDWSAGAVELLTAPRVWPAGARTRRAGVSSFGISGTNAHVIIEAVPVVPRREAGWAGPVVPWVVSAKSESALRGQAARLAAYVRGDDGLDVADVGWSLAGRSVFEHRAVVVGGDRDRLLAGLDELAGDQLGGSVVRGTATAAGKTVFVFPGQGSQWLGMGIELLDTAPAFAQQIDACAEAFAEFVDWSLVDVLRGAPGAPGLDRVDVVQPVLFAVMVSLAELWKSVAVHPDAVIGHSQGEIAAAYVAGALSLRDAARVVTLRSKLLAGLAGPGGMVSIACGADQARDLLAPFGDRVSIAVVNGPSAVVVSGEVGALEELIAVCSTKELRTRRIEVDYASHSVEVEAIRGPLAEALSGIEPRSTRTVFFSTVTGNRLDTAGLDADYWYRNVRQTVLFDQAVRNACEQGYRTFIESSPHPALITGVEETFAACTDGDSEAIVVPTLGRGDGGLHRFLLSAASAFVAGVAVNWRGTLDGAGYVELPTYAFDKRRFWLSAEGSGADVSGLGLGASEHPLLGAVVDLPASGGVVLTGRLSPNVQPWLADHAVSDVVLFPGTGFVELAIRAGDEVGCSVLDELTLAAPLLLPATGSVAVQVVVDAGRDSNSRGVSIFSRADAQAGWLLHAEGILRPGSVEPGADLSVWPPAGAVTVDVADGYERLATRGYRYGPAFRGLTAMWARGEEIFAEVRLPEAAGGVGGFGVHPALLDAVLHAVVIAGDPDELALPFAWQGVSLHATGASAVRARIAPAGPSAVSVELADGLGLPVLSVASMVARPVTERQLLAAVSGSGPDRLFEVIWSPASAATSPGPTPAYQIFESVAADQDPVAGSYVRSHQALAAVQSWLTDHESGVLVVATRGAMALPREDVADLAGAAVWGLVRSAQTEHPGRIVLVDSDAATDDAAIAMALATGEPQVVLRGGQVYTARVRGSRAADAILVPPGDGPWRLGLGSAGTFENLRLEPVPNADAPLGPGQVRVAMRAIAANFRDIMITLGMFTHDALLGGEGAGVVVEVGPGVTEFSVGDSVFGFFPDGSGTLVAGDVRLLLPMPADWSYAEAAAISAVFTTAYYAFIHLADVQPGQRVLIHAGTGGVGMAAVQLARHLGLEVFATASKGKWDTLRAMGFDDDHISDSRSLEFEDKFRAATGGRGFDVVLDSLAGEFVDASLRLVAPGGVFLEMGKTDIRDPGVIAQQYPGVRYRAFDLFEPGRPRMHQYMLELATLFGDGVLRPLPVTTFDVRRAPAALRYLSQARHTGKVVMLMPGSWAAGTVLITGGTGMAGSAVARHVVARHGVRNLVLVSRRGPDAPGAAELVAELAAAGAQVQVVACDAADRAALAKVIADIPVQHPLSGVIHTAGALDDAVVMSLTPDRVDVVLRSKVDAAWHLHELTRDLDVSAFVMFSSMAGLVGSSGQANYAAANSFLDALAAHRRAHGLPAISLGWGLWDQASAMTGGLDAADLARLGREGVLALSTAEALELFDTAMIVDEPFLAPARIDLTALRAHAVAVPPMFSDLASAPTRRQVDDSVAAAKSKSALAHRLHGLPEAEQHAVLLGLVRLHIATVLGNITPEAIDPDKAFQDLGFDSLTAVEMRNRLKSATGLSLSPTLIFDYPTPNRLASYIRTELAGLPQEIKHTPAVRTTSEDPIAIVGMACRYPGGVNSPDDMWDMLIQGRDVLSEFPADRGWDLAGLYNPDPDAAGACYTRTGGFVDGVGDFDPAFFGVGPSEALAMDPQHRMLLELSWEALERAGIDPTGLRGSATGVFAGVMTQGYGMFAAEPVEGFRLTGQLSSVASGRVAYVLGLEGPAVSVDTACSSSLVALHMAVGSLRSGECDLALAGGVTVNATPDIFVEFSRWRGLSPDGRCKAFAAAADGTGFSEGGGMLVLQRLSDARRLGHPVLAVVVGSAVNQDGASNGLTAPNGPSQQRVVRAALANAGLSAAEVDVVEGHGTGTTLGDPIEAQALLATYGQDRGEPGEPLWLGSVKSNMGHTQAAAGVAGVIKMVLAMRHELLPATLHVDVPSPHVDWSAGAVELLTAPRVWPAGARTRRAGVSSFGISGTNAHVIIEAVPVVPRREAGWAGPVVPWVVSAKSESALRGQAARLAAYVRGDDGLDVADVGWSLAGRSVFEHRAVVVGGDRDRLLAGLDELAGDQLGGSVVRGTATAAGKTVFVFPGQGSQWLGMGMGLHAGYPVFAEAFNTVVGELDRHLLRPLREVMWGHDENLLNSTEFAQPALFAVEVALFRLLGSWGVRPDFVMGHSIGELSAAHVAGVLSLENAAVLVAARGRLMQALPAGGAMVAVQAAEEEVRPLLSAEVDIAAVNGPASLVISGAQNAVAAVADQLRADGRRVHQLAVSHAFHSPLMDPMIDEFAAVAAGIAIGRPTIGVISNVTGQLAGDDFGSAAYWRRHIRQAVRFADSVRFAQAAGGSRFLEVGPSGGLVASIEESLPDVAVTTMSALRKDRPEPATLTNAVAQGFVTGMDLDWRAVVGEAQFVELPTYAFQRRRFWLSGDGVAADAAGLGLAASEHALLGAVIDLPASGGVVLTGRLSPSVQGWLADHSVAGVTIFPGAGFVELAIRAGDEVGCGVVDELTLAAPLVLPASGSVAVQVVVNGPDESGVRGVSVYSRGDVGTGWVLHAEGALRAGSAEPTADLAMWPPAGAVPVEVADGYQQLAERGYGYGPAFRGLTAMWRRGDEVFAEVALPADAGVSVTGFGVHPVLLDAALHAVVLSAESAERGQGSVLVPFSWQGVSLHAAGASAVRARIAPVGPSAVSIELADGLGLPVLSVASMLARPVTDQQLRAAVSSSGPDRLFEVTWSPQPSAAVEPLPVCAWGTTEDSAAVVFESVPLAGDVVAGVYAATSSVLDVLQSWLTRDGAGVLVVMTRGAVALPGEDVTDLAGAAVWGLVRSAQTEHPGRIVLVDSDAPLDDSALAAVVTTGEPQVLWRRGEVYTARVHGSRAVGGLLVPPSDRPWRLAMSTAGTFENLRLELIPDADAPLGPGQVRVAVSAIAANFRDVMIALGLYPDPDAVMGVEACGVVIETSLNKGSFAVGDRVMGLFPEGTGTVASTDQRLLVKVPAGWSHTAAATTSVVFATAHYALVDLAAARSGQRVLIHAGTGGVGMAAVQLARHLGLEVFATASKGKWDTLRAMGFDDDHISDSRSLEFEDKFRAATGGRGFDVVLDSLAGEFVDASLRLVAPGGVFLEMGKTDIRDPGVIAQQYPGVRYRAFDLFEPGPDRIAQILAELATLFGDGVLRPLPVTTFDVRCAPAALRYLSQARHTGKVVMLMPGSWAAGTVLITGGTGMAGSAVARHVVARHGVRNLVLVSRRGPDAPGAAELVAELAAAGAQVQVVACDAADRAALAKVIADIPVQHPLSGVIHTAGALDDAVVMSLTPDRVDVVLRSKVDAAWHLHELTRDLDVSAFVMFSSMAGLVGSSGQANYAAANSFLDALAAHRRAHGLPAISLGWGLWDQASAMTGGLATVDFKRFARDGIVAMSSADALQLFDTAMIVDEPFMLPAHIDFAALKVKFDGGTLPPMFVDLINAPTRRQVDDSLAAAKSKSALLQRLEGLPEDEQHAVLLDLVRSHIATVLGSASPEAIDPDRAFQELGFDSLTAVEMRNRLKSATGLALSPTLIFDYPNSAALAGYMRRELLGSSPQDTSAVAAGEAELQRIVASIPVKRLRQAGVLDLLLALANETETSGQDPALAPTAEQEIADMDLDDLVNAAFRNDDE

SMILES	14C labelling of protein, SDS-PAGE phosphorimaging [1]	inhibition at 100 μM [2]
CC(C)(COP(=O)(O)OP(=O)(O)OC[C@H]1O[C@@H](n2cnc3c(N)ncnc32)[C@H](O)[C@@H]1OP(=O)(O)O)[C@@H](O)C(=O)NCCC(=O)NCCSC(=O)CC(=O)O [malonyl CoA]	SDS-PAGE gel-binding assays clearly showed that PKS12 could be radiolabeled with both of these substrates	
C/C=C/C/C=C/CCC(=O)[C@H]1O[C@H]1C(N)=O [cerulenin]		incubation of PKS12 protein with KS inhibitor cerulenin showed no radioactive bands
CC(C(=O)O)C(=O)SCCNC(=O)CCNC(=O)[C@H](O)C(C)(C)COP(=O)(O)OP(=O)(O)OC[C@H]1O[C@@H](n2cnc3c(N)ncnc32)[C@H](O)[C@@H]1OP(=O)(O)O (stereo partly drawn) [methylmalonyl CoA]	SDS-PAGE gel-binding assays clearly showed that PKS12 could be radiolabeled with both of these substrates	
